Test results: patent publication US20140248263A1, “BISPHENOL COMPOUNDS AND METHODS FOR THEIR USE” (THE UNIVERSITY OF BRITISH COLUMBIA, priority 2011, published 2014)

Target: T1, androgen receptor (AR) (Homo sapiens, UniProt P10275, T878A)
T1 construct: LNCaP cells express endogenous AR; endogenous in cells; host or cells: LNCaP
T1 sequence (P10275 1-920 T878A): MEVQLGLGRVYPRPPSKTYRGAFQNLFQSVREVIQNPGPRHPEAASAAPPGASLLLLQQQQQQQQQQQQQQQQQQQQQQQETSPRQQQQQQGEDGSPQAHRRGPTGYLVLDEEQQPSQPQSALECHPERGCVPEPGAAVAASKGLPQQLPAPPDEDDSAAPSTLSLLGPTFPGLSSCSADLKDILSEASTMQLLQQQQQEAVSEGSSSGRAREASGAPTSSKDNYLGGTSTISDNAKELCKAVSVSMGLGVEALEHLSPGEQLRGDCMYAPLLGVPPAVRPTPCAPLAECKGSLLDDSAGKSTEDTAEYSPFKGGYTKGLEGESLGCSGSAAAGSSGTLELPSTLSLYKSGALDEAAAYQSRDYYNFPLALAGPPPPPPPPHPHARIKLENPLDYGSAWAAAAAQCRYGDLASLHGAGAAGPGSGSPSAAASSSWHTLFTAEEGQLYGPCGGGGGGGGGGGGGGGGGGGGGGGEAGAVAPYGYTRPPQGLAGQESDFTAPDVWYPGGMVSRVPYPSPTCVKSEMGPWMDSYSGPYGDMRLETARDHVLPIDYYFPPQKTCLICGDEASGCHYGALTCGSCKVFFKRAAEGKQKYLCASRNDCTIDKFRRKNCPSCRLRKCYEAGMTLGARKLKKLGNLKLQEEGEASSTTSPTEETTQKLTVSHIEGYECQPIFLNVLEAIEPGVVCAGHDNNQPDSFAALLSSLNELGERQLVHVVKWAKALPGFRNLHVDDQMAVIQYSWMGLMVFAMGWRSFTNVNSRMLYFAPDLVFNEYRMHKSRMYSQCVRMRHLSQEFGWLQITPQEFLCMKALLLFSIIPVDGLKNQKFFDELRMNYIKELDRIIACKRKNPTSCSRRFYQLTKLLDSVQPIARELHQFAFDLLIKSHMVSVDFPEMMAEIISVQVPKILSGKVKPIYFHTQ
Experiment: PSA (6.1 kb)-luciferase reporter assay in LNCaP cells induced with R1881
Format: cell-based
Details: LNCaP cells transfected with PSA (6.1 kb)-luciferase; 1 h pre-treatment, R1881 1 nM, 48 h; relative luciferase activity
From the text: LNCaP cells were employed initially for all experiments because they are well-differentiated human prostate cancer cells in which ligand-independent activation of the AR by FSK has been characterized (Nazareth et al 1996 J. Biol. Chem. 271, 19900-19907; and Sadar 1999 J. Biol. Chem. 274, 7777-7783). LNCaP cells express endogenous AR and secrete prostate-specific antigen (PSA) (Horoszewicz et al 1983Cancer Res. 43, 1809-1818). LNCaP cells can be grown either as monolayers in cell culture or as tumors in the well-characterized xenograft model that progresses to androgen independence in castrated hosts (Sato et al 1996 J. Steroid Biochem. Mol. Biol. 58, 139-146; Gleave et al 1991 Cancer Res. 51, 3753-3761; Sato et al 1997 Cancer Res. 57, 1584-1589; and Sadar et al 2002 Mol. Cancer. Ther. 1(8), 629-637). R1881 was employed since it is stable and avoids problems associated with the labile physiological ligand dihydrotestosterone (DHT). Reporter specificity may be determined using several alternative reporter gene constructs. Some well characterized ARE-driven reporter gene constructs that have been used extensively are the PSA (6.1 kb) enhance/promoter which contains several AREs and is highly inducible by androgens as well as by FSK (Ueda et al 2002 A J. Biol. Chem. 277, 7076-7085) and the ARR3-thymidine kinase (tk)-luciferase, which is an artificial reporter construct that contains three tandem repeats of the rat probasin ARE1 and ARE2 regions upstream of a luciferase reporter (Snoek et al 1996 J. Steroid Biochem. Mol. Biol. 59, 243-250).
LNCaP cells were transiently cotransfected with PSA (6.1 kb)-luciferase (0.25 μg/well) in 24-well plates for 24 h prior to pre-treatment with compounds for 1 hour before the addition of synthetic androgen, R1881 (1 nM), to induce PSA production or vehicle. The total amount of plasmid DNA transfected was normalized to 0.75 μg/well by the addition of the empty vector. After 48 h of incubation with R1881, the cells were harvested, and relative luciferase activity was determined. Test compounds were added to the cells at various concentrations and activity for each treatment was normalized to the predicted maximal activity induction (in the absence of test compounds, vehicle only). Plotting of sigmoidal curves (Boltzmann Function) and IC50 calculations were done using OriginPro 8.1 Sofware (Northampton, Mass., USA). Furthermore, toxicity was assessed by both microscopic examination and reduction of protein levels. Solubility was assessed both macroscopically (cloudy media) and microscopically (formation of granules or crystals).

SMILES	IC50 [nM]
C#CCOC[C@@H](O)COc1ccc(C(C)(C)c2ccc(OC[C@H](O)CCl)cc2)cc1 [Compound 16]	6940
CCCCOCC(O)COc1ccc(C(C)(C)c2ccc(OCC(O)COCCCC)cc2)cc1 (centres unmarked) [Compound 33, 3,3′-(4,4′-(propane-2,2-diyl)bis(4,1-phenylene))bis(oxy)bis(1-butoxypropan-2-ol)]	700
COCC(O)COc1ccc(C(C)(C)c2ccc(OCC(O)CCl)cc2)cc1 (centres unmarked) [Compound 30, 1-chloro-3-(4-(2-(4-(2-hydroxy-3-methoxypropoxy)phenyl)propan-2-yl)phenoxy)propan-2-ol]	11500
CC(C)OCC(O)COc1ccc(C(C)(C)c2ccc(OCC(O)COC(C)C)cc2)cc1 (centres unmarked) [Compound 31, 3,3′-(4,4′-(propane-2,2-diyl)bis(4,1-phenylene))bis(oxy)bis(1-isopropoxypropan-2-ol)]	4500
CCCCOCC(O)COc1ccc(C(C)(C)c2ccc(OCC(O)CCl)cc2)cc1 (centres unmarked) [Compound 34, 1-butoxy-3-(4-(2-(4-(3-chloro-2-hydroxypropoxy)phenyl)propan-2-yl)phenoxy)propan-2-ol]	1740

Continued by falling IC50, values first:

IC50 [nM]	SMILES
4500	CC(C)OCC(O)COc1ccc(C(C)(C)c2ccc(OCC(O)CCl)cc2)cc1 (centres unmarked) [Compound 32, 1-chloro-3-(4-(2-(4-(2-hydroxy-3-isopropdxypropoxy)phenyl)propan-2-yl)phenoxy)propan-2-ol]
4500	C#CCOCC(O)COc1ccc(C(C)(C)c2ccc(OCC(O)CO)cc2)cc1 (centres unmarked) [Compound 5, 3-(4-(2-(4-(2-hydroxy-3-(prop-2-ynyloxy)propoxy)phenyl)propan-2-yl)phenoxy)propane-1,2-diol]
2200	C#CCOC[C@H](O)COc1ccc(C(C)(C)c2ccc(OC[C@@H](O)CCl)cc2)cc1 [Compound 10, (R)-1-chloro-3-(4-(2-(4-((S)-2-hydroxy-3-(prop-2-ynyloxy)propoxy)phenyl)propan-2-yl)phenoxy)propan-2-ol]
2200	C#CCOC[C@H](O)COc1ccc(C(C)(C)c2ccc(OC[C@H](O)CCl)cc2)cc1 [Compound 12]
1600	C#CCOCC(O)COc1ccc(C(C)(C)c2ccc(OCC(O)CCl)cc2)cc1 (centres unmarked) [Compound 3, 1-chloro-3-(4-(2-(4-(2-hydroxy-3-(prop-2-ynyloxy)propoxy)phenyl)propan-2-YL)phenoxy)propan-2-ol]
1300	C#CCOC[C@@H](O)COc1ccc(C(C)(C)c2ccc(OC[C@@H](O)CCl)cc2)cc1 [Compound 18]
